Measurements from US20050142111A1, “Method to prevent transplant rejection by stable expression of heme oxygenase-1” (priority 2003, published 2005).

What was measured:
HO = molecular target: T1, HO (Rattus norvegicus, UniProt P06762); experiment: Blocking of HO activity by ZnPPIX, carboxyhemoglobin in peripheral blood of recipients; assay type: in vivo; settings: 2 mg/kg/day intraperitoneally to recipients
T1 construct: expressed in transfected cells; host or cells: LEW rat heart allografts transduced with rAAV/HO-1, in F344 rat recipients (in vivo)
T1 sequence (P06762 1-289): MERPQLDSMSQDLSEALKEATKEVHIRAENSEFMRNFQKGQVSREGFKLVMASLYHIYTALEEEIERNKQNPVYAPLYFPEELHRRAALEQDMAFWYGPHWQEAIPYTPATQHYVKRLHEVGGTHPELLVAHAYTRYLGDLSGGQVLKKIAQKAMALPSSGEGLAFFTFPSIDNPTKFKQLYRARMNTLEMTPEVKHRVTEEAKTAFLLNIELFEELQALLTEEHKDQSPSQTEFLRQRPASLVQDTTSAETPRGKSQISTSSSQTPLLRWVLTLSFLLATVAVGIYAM
Procedure: Heme oxygenase-1 inhibitor, zinc protoprophyrin IX (ZnPPIX, Calbiochem-Novabiochem, Germany) was administered intraperitoneally according to the experimental protocols.
The HO enzyme activity was measured by two of its end products: carbon monoxide and biliverdin/bilirubin. The amount of carbon monoxide was measured by spectrophotometry providing a determination of carboxyhemoglobin in the peripheral blood of the animals. The level of intragraft bilirubin was measured by the method as described. In brief, the frozen samples of grafts were homogenized in ice-cold sucrose and Tri-HCl buffer. The microsomal pellet was obtained after centrifugation, and re-suspended in MgCl2-potassium phosphate buffer. Sample protein was then incubated with the reaction mixture containing rat liver cytosol, hemin, glucose-6-phosphate, glucose-6-phosphate dehydrogenase and NADPH (Sigma-Aldrich, St. Louis) for 60 minutes at 37° C. The generated bilirubin was measured by reacting with diazotized surfanilic acid to yield azobilirubin using spectrophotometry. The level of intragraft bilirubin was deduced by the ratio of its contents in the sample/naive heart. […]

[1] = system: LEW heart grafts to F344 recipients; experiment: Allogeneic heart transplant graft survival; assay type: in vivo, rat
Procedure: LEW (RT1′) and F344 (RT1^lvl) rats were purchased from the Institute of Laboratory Animals, Medical School Hannover, Germany, and maintained in the Laboratory Animal Unit, The University of Hong Kong. All experimental procedures were performed according to institutional guidelines and approved by the Committee on the Use of Live Animal in Teaching and Research. Allogeneic heart transplants were performed using LEW and F344 rats weighing from 200-250 grams as donors or recipients respectively. For the syngeneic graft, LEW rats were used as recipients. In brief, after in situ perfusion of donor heart grafts with the HTK solution (Koehler Chemie, Germany), 1×10^12 vector genomes of rAAV/GFP or rAAV/HO-1 were administered into the heart graft via the coronary artery. Grafts were then preserved in cold HTK solution for 6 hours before the transplant. The implantation procedure was as described in the literature. Graft function was monitored by daily palpation, and the allograft rejection was defined by full cessation of ventricular contraction, and confirmed by pathological examination.
Heme oxygenase-1 inhibitor, zinc protoprophyrin IX (ZnPPIX, Calbiochem-Novabiochem, Germany) was administered intraperitoneally according to the experimental protocols. […]

For `C=CC1=C(C)c2cc3[n-]c(cc4[n-]c(cc5nc(cc1n2)C(C)=C5C=C)c(C)c4CCC(=O)O)c(CCC(=O)O)c3C.[Zn+2]` [ZnPPIX, zinc protoporphyrin IX], the “HO activity, level of carboxyhemoglobin” value (HO) was “significantly inhibited”, the “graft survival rate in rAAV/HO-1+CsA group” value ([1]; ZnPPIX administered from day 31 to 100) was “remained unchanged” and the “graft survival in rAAV/HO-1+CsA group” value ([1]; combined administration of ZnPPIX from day 0 to 30) was “shortened”.
